Target: Tyrosine-protein kinase Blk (Homo sapiens) (UniProt P51451)
Assay: inhibition of BLK tyrosine kinase activity – biochemical, Z'-LYTE FRET, direct format, recombinant human, dose response (AID 1671221)
Details: Z'-LYTE FRET peptide phosphorylation

Tyrosine-protein kinase Blk (Homo sapiens), sequence (P51451 whole entry, looked up): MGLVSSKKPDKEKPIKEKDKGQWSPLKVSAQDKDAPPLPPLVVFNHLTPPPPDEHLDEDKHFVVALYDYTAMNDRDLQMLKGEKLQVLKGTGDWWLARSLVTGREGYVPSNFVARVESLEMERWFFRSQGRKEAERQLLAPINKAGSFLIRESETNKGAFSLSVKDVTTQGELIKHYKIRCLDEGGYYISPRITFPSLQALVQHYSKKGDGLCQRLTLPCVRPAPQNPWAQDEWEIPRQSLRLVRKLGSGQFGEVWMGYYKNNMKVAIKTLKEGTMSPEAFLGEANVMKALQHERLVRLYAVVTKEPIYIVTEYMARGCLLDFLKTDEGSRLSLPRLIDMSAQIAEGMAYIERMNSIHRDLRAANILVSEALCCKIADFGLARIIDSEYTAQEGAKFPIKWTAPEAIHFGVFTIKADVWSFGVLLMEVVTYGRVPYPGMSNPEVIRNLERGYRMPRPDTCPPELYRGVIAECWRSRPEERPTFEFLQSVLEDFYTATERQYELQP

- IC50: 1160 nM
SMILES: COc1cc2ncnc(Nc3cccc(Cl)c3)c2cc1OC
